From patent US20200278355A1, “CONJUGATED PROTEINS AND USES THEREOF” (THE SCRIPPS RESEARCH INSTITUTE, priority 2017, published 2020)

Target: T1, RBM45-NR0B1 interaction (Homo sapiens, UniProt P51843)
T1 construct: endogenous in cells; host or cells: H460 cells (also H2122 and A549) stably expressing FLAG-RBM45 by lentiviral transduction (FLAG-pLJM1)
T1 sequence (P51843 1-470): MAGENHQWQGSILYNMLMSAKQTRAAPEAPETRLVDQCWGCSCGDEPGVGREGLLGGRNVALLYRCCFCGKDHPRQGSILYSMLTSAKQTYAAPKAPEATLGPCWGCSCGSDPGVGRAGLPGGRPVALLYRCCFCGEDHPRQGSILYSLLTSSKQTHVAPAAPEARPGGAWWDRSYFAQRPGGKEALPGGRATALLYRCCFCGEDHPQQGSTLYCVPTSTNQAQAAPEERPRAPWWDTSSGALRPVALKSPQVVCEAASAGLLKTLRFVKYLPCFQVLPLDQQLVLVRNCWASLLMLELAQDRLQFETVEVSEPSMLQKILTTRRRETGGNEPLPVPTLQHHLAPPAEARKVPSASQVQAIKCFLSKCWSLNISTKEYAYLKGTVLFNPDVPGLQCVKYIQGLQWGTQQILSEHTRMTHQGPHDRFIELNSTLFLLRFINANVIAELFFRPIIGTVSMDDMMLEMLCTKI
Experiment: RBM45-NR0B1 interaction in NSCLC cells stably expressing FLAG-RBM45 (FLAG immunoprecipitation)
Assay type: cell-based
Conditions: 3 h; for blockade of the RBM45-NR0B1 interaction: H460 cells; for blockade of NR0B1 binding to FLAG-RBM45: H2122 and A549 cells
Description: FIG. 6A-FIG. 6F show characterization of NR0B1 ligands in KEAP1-mutant NSCLC cells. […] Dashed lines designate R values≥3 (DMSO/compound), which was used as a cutoff to define cysteines liganded by the indicated compounds. Insets show MS1 profiles for C274 in NR0B1 for DMSO (blue) versus compound (red) treatment. Data are from individual experiments representative of at least three biological replicates. […] (See also Table 5). […] H460 cells stably expressing FLAG-RBM45 were incubated with indicated compounds for 3 h, whereupon FLAG immunoprecipitates were performed and analyzed by immunoblotting. […] Experiments performed as described in (C). […] Dashed line designates R values (light/heavy) of <8, which was used as a cutoff for fast-turnover proteins. […] Charts comparing fraction of NRF2-regulated genes (as determined by RNAseq) for which the corresponding proteins are designated as fast or slow turnover (as determined in G) further divided into groups showing reduced expression (left) or not (right) on day 1 following NRF2 knockdown (as determined by isoTOP-ABPP).
FIG. 12A-FIG. 12G show characterization of NR0B1 ligands in Keap1-mutant NSCLC cells. […] Data obtained from isoTOP-ABPP experiments of H460 cells treated with compound (red traces) or DMSO (blue traces) for 3 h. […] Shown are MS1 profiles for quantified cysteines in NR0B1 following treatment with BPK-29 (40 μM, red; top) BPK-26 (40 μM, red; bottom) or DMSO (blue) for 3 h. […] KEAP1-null HEK293T cells stably expressing FLAG-RBM45 or FLAG-SNW1 were incubated with the indicated compounds for 3 h, after which FLAG immunoprecipitates were prepared from cell lysates. Immunoprecipitates and lysates were analyzed by immunoblotting for the indicated proteins. Dashed lines represent a lane that was cropped from this immunoblot. […] H2122 or A549 cells stably expressing FLAG-RBM45 were incubated with the indicated compounds for 3 h, after which FLAG immunoprecipitates were prepared. Immunoprecipitates and lysates were analyzed as described in (E). […] H2122 cells stably expressing FLAG-RBM45 or A549 cells stably expressing FLAG-SNW1 were incubated with indicated compounds for 3 h and FLAG immunoprecipitates were prepared and analyzed as described in (E).
Confluent 10 cm plates of indicated cell lines were rinsed once with warm PBS and incubated in serum/dye-free RPMI with indicated compounds or vehicle for 3 h at 37° C. Cells were washed once ice-cold PBS and snap frozen.
Cells were rinsed once with ice-cold PBS, and lysed by sonication in Triton IP buffer. Lysates were clarified by centrifugation at 16,000×g for 10 min. […] Proteins were resolved by SDS-PAGE, analyzed by immunoblotting and relative band intensities were quantified using ImageJ software.

blockade of the RBM45-NR0B1 interaction | blockade of NR0B1 binding to FLAG-RBM45 | SMILES
block | block | O=C(CCl)N(Cc1cccc(Cl)c1F)c1ccc(Cl)nc1 [BPK-26, 2-chloro-N-(3-chloro-2-fluorobenzyl)-N-(6-chloropyridin-3-yl)acetamide]
block | block | O=C(c1ccc(N2CCOCC2)cc1)N1CCCC(N(Cc2ccccc2)C(=O)CCl)CC1 (stereo not shown) [BPK-29, N-benzyl-2-chloro-N-(1-(4-morpholinobenzoyl)azepan-4-yl)acetamide]
